Assay results reported in US20090075948A1, “COMPOSITIONS AND METHODS FOR REGULATING CELLULAR PROTECTION” (California Institute of Technology, priority 2007, published 2009).

How the values were obtained:
Type in all cases: cell-based, Drosophila
[1] = system: Hsp70; test: Hsp70 transcription, primer-extension analysis of isolated RNA; details: for stimulation of Hsp70 transcription: without cellular stress
Description: FIG. 15. Time course for Hsp70 transcription induction by 3 mM salicylic acid. Cells were treated with 3 mM salicylic acid and RNA was isolated at the indicated times.
Control cells (lanes 1 and 2) show activation of Hsp70 transcription as a result of a ten-minute heat shock. […] Lanes 3 and 4 contain RNA from KD cells with RNAi against Hsc4p. […] When Hsc4p levels are reduced, HSF is able to bind DNA and activate transcription without heat shock.

[2] = system: Hsp70; test: Induction of Hsp70 protein synthesis in cultured cells; details: for optimal concentration for induction of Hsp70 protein synthesis: treated 60 minutes, no heat shock; for stimulation of Hsp70 protein synthesis: without cellular stress
Description: FIG. 14. Induction of HSF DNA binding and hsp70 protein synthesis by ibuprofen and salicylic acid. The concentrations of ibuprofen and salicylic acid are shown as mM. Both DNA binding and Hsp70 protein synthesis follow the same optimal concentrations. The cells were treated for 60 minutes with the indicated drug and whole cell extracts prepared for analysis. […] The goal here is to activate HSF to produce adequate levels of Hsp70 that can provide neuroprotective functions to the human brain. To begin these studies, two common non-steroidal anti-inflammatory drugs (NSAIDs), ibuprofen and salicylic acid, were tested. These molecules have been previously shown to stimulate HSF DNA binding in mammalian and Drosophila cells. The findings presented here differ from those previously published. As reported here, both salicylic acid and ibuprofen can stimulate HSF DNA binding, Hsp70 transcription and Hsp70 protein synthesis. […] It is clear that both DNA binding and Hsp70 protein synthesis have identical optimums.

[3] = system: HSF; test: HSF DNA binding activity, gel mobility shift assay (EMSA) with whole cell extracts and labeled HSE; details: for optimal concentration for induction of HSF DNA binding: treated 60 minutes, no heat shock; for stimulation of HSF DNA binding: without cellular stress
Description: FIG. 14. Induction of HSF DNA binding and hsp70 protein synthesis by ibuprofen and salicylic acid. The concentrations of ibuprofen and salicylic acid are shown as mM. Both DNA binding and Hsp70 protein synthesis follow the same optimal concentrations. The cells were treated for 60 minutes with the indicated drug and whole cell extracts prepared for analysis.
The effect of the KDs on DNA binding was first examined using the gel mobility shift assay. Briefly cells were treated with RNAi or transfected with the indicated DNA constructs and harvested four days later. Whole cell extracts were prepared and DNA binding carried out with a labeled heat shock element (HSE) double stranded oligonucleotide. Lanes 1 and 2 represent control cells, non-shocked and heat shocked, respectively. […] Lanes 3 and 4 contain extract derived from the Hsc3p KD cells.

[4] = Drosophila cultured cells, 60 minutes

| SMILES | stimulation of Hsp70 transcription [1] | optimal concentration for induction of Hsp70 protein synthesis ([2]; Drosophila cultured cells) | stimulation of Hsp70 protein synthesis [2] | optimal concentration for induction of HSF DNA binding ([3]; Drosophila cultured cells) | stimulation of HSF DNA binding [3] | time course of Hsp70 transcription induction ([1]; 3 mM salicylic acid) | low concentration that still functions for Hsp70 protein synthesis [2, 4] | low concentration that still functions for HSF DNA binding [3, 4] |
| --- | --- | --- | --- | --- | --- | --- | --- | --- |
| CC(C)Cc1ccc(C(C)C(=O)O)cc1 (stereo not shown) [ibuprofen] | can stimulate | 3 to 10 mM | can stimulate | 3 to 10 mM | can stimulate |  |  |  |
| O=C(O)c1ccccc1O [salicylic acid] | can stimulate | quite broad | can stimulate | quite broad | can stimulate | induced rapidly | 1 mM | 1 mM |
